Reference: US20250222145A1, “TRACER COMPOSITION FOR RADIOACTIVE PET DIAGNOSIS, INTERMEDIATE THEREOF, AND PRODUCTION METHOD THEREOF” (OSAKA UNIVERSITY, priority 2021, published 2025)

What was measured:
[1] = system: brain tumor (C6 glioma); assay: PET imaging of tumor accumulation in C6 glioma model mouse; format: in vivo
Protocol: (§1) ^18F-FAMT-OMe synthesized in the Example 1 was administered to a model mouse of brain tumor (C6 glioma), and accumulation properties thereof were observed Specifically, a solution containing about 10 MBq of ^18F-FAMT-OMe was intravenously injected into the mouse, and PET images were acquired at regular intervals.

[2] = changes over time in accumulation in the kidney (SUV, PET); format: in vivo, mouse; settings: FIG. 3, SUV based on the radiation dose of blood
Protocol: as §1
In addition, FIG. 3 (left drawing) illustrates a result of measuring changes over time in the accumulation of the ^18F-FAMT-OMe in the kidney on the basis of a standardized uptake value (SUV) value based on the radiation dose of blood. As a comparative example, a result of a case using the ^18F-FAMT is illustrated in FIG. 3 (right drawing). In addition, FIG. 4 is a graph comparing the maximum value of SUV (SUVmax) with the existing tracer compounds ^18F-FBPA and ^18F-FAMT.

[3] = system: brain tumor (C6 glioma); assay: distribution (% ID/g) in the mouse body; format: in vivo; settings: FIG. 5; except kidney and pancreas
Description: Further, FIG. 5 is a graph representing a distribution (% ID/g) of the ^18F-FAMT-OMe of the present invention in the mouse body.

[4] = radiochemical purity over time after production; format: physicochemical; settings: after 5 hours of production, FIG. 1
Description: A result of measuring radiochemical purity of the obtained compound 3 is illustrated in FIG. 1.

COc1ccc(CC(C)(N)C(=O)O)cc1[18F] (stereo not drawn) [Compound 3]
accumulation at a tumor site (PET images) ([1]; about 10 MBq intravenously, model mouse of brain tumor (C6 glioma), FIG. 2): clear and high accumulation at a tumor site
washing out from tumor site ([1]; in comparison with conventional ^18F-FAMT, FIG. 2): washing out was significantly gentle
accumulation one hour after administration ([1]; one hour after administration, versus conventional ^18F-FAMT): better than that of the conventional ^18F-FAMT
accumulation in the kidney over time (SUV) [2]: excreted from the kidney over time
distribution (% ID/g): tumor versus normal organs and blood [3]: significantly higher accumulation at a tumor site
stability of radiochemical purity [4]: purity was maintained even after 5 hours
